Source: patent US6197258A, “Photoluminescent sensors of chemical analytes” (University of Maryland, Baltimore, priority 1999, dated 2001)
Read-outs that look alike come from different tables or passages of the source. Blank lines part the entries; values can stand above or below the molecule they belong to.

Key:
[1] = target: T1, recombinant human carbonic anhydrase II, holocarbonic anhydrase II (Homo sapiens, UniProt P00918); assay: Affinity of holocarbonic anhydrase for Dapoxyl sulfonamide from fluorescence intensity changes; format: binding; conditions: from fluorescence intensity changes (data not shown)
T1 construct: made in house; host or cells: E. coli (inferred from 'by the means previously discussed herein'; b110 states E. coli BL21(DE3)pACA for a variant)
Protocol: The recombinant human carbonic anhydrase II was obtained by the means previously discussed herein. Fluorescence spectra and anisotropies were determined on a Spectronics AB-2 spectrophotofluorometer; the former are uncorrected. Fluorescence lifetimes were determined on an ISS K2 multifrequency phase fluorometer using the 442 nm line (30 mW) of a Kimmon HeCd laser (for BTCS) or the ultraviolet lines (100 mW) of a Spectra-Physics model 2065-7S argon ion laser (for dapoxyl sulfonamide) essentially as previously described. […]
In particular, emission of the bound form shifts from a peak at 605 nm to 530 nm, and increases about 90-fold, compared to the free form. […] The advantages of intensity ratios for accuracy in quantitating concentrations of metal ions such as calcium are by now widely appreciated. These intensity changes permit the affinity of holocarbonic anhydrase for Dapoxyl sulfonamide to be determined as […] (data not shown). The intensity increase of dapoxyl sulfonamide is also accompanied by a large increase in fluorescence lifetime. We measured the frequency-dependent phase angles and demodulation of dapoxyl sulfonamide free in solution, in the presence of holocarbonic anhydrase II, and in the presence of sonicated unilamellar vesicles of DOPC/cholesterol 3:1 (0.1 M). […]

[2] = target: T2, recombinant human carbonic anhydrase II, wild type, holoprotein (holo-CA, Zn(II) bound) (Homo sapiens, UniProt P00918); assay: Affinity of ABD-M for holo-CA from changes in fluorescence intensity or anisotropy; format: binding; conditions: holocarbonic anhydrase
T2 construct: made in house; host or cells: E. coli (inferred from 'as previously described'; b198 states E. coli for the wild type gene, b110 states BL21(DE3)pACA for a variant)
Excerpt: Our approach for determining metal ions by fluorescence anisotropy is diagrammed in FIG. 16. ABD-M was synthesized by coupling ABD-F (7-fluoro-benz-2-oxa-1,3-diazole-4-sulfonamide; Molecular Probes Cat. No.F-6053) with excess beta-mercaptoethanol in dimethylformamide overnight at room temperature (FIG. 17). […] Recombinant human carbonic anhydrase II was expressed, isolated, and purified; and its Zn(II) removed by treatment with dipicolinate all as previously described. In view of the well-known difficulty of reproducibly preparing solutions with low concentrations of free zinc ion, we prepared a series of metal ion buffers using nitrilotriacetic acid (NTA) and MOPS. […] The concentration of Zn(II) unbound at a particular pH is readily calculable from the known stability constants of the NTA and the pKa's of NTA's ionizable groups (19). […]
Fluorescence spectra, intensities and anisotropies were measured on a Spectronics AB-2 fluorimeter using film polarizers and 4 nm bandpasses. Frequency-dependent phase shifts and demodulations were measured on an ISS K2 phase fluorometer using the UV lines of a Spectra-Physics 2065 argon ion laser for excitation, dimethylPOPOP in ethanol as a reference compound as previously described, and bandpass filters as indicated in the figure legends. […]

[3] = target: T2, recombinant human carbonic anhydrase II, wild type, holoprotein (holo-CA, Zn(II) bound); conditions: comparison value, conditions not given; read-out: affinity (dansylamide, comparison value); cited from earlier work
[4] = target: T3, wild type human carbonic anhydrase II, holoprotein (holo-CA) (Homo sapiens, UniProt P00918); assay: KD of the diffusible inhibitor ABD-N for the holoprotein; format: binding
T3 construct: made in house; host or cells: E. coli
Protocol: Genes for wild type human carbonic anhydrase II and variants were isolated, constructed, and expressed in E. coli as previously described. ABD-N was synthesized by coupling ABD-F (Molecular Probes, Eugene, Oreg.) with excess ethanolamine in DMF at room temperature for 4 hours and lyophilizing. Zn(II) was removed from holo-CA to make apo-CA by treatment with dipicolinate as previously described. Fluorescence anisotropy measurements were obtained on an SLM AB-2 spectrophotofluorimeter according to the manufacturer's recommendations, under the spectral conditions given in the figures.
The changes in anisotropy are also dramatic, going from 0.08 to 0.23 as the apoprotein becomes saturated with Zn(II) (FIG. 37); the ordinary accuracy and precision of such measurements is ±0.003. The apparent KD of the enzyme for Zn(II) under these conditions is about 20 picomolar, which is somewhat higher than published values obtained under slightly different conditions.
The use of a separate, diffusible inhibitor like ABD-N can create difficulties, however. […] This Cu(II) determination, while clearly representing a […] response, cannot be due to simple collisional quenching by the Cu(II) at these low concentrations,and furthermore is more than one thousand-fold more sensitive than previous fluorescence-based determinations of Cu(II).

Kd [1]: 300 nM
Structure (SMILES): CN(C)c1ccc(-c2cnc(-c3ccc(S(N)(=O)=O)cc3)o2)cc1 [Dapoxyl sulfonamide]

Kd [2]: 300 nM
Structure (SMILES): NS(=O)(=O)c1ccc(SCCO)c2nonc12 [ABD-M, 7-fluorobenz-2-oxa-1,3,-diazole-4-sulfonamide+beta-mercaptoethanol adduct]

Structure (SMILES): CN(C)c1cccc2c(S(N)(=O)=O)cccc12 [dansylamide]
Kd [3]: 800 nM

Kd [4]: ~300 nM
Structure (SMILES): NS(=O)(=O)c1ccc(NCCO)c2nonc12 [ABD-N, 7-fluorobenz-2-oxa-1,3,-diazole-4-sulfonamide:ethanolamine adduct]
